The supplement of paper PMC10883282
± gives the standard deviation of the averaged measurements.

Assays:
Test in all cases: relative viability vs DMSO control (72 h) (fraction); higher = more viable cells
G401 = tested on: G401
Summary of the method: (§1)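 Sarcoma cell lines were seeded in 384-well plates at densities chosen for 80–90% confluence, then 24 h later given 2.5 µl of serially diluted compound drawn from source plates spanning 10 mM to 0.0002 mM. They were held 72 h at 37 °C, 5% CO2, with 0.1% DMSO vehicle and a 5 µM positive control included. Relative viability was read with ATPLite as percent growth and averaged over up to triplicate wells. Rescaling placed full at 1 and none at 0.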

A204 = tested on: A204
Summary of the method: as §1

SYO-1 = tested on: SYO-1
Summary of the method: as §1

SW872 = tested on: SW872
Summary of the method: as §1

KHOS-NP = tested on: KHOS-NP
Summary of the method: as §1

MES-SA = tested on: MES-SA
Summary of the method: as §1

HT1080 = tested on: HT1080
Summary of the method: as §1

SK-LMS-1 = tested on: SK-LMS-1
Summary of the method: as §1

HS729 = tested on: HS729
Summary of the method: as §1

SW684 = tested on: SW684
Summary of the method: as §1

SW1353 = tested on: SW1353
Summary of the method: as §1

VA-ES-BJ = tested on: VA-ES-BJ
Summary of the method: as §1

Cn1cnc2c(F)c(Nc3ccc(Br)cc3Cl)c(C(=O)NOCCO)cc21 [Selumetinib]
Conditions | relative viability
A204, 0.00017 µM | 1.03 ± 0.058
A204, 0.00051 µM | 1.02 ± 0.068
A204, 0.00152 µM | 1.01 ± 0.027
A204, 0.00457 µM | 1.055 ± 0.01
A204, 0.01372 µM | 0.988 ± 0.029
A204, 0.04115 µM | 0.977 ± 0.0054
A204, 0.1235 µM | 0.947 ± 0.065
A204, 0.3704 µM | 0.973 ± 0.013
A204, 1.111 µM | 0.939 ± 0.032
A204, 3.333 µM | 0.9367 ± 0.0092
A204, 10 µM | 0.811 ± 0.031
G401, 0.00017 µM | 0.994 ± 0.049
G401, 0.00051 µM | 0.962 ± 0.051
G401, 0.00152 µM | 0.959 ± 0.033
G401, 0.00457 µM | 0.935 ± 0.087
G401, 0.01372 µM | 0.949 ± 0.029
G401, 0.04115 µM | 0.926 ± 0.029
G401, 0.1235 µM | 0.882 ± 0.018
G401, 0.3704 µM | 0.838 ± 0.032
G401, 1.111 µM | 0.78 ± 0.037
G401, 3.333 µM | 0.719 ± 0.045
G401, 10 µM | 0.627 ± 0.054
HS729, 0.00017 µM | 0.898 ± 0.086
HS729, 0.00051 µM | 0.929 ± 0.039
HS729, 0.00152 µM | 0.869 ± 0.062
HS729, 0.00457 µM | 0.894 ± 0.058
HS729, 0.01372 µM | 0.896 ± 0.097
HS729, 0.04115 µM | 0.902 ± 0.084
HS729, 0.1235 µM | 0.849 ± 0.023
HS729, 0.3704 µM | 0.843 ± 0.03
HS729, 1.111 µM | 0.846 ± 0.075
HS729, 3.333 µM | 0.82 ± 0.047
HS729, 10 µM | 0.794 ± 0.018
HT1080, 0.00017 µM | 0.96 ± 0.018
HT1080, 0.00051 µM | 0.97 ± 0.067
HT1080, 0.00152 µM | 0.974 ± 0.023
HT1080, 0.00457 µM | 0.9799 ± 0.0076
HT1080, 0.01372 µM | 0.927 ± 0.053
HT1080, 0.04115 µM | 0.855 ± 0.043
HT1080, 0.1235 µM | 0.805 ± 0.014
HT1080, 0.3704 µM | 0.6793 ± 0.0063
HT1080, 1.111 µM | 0.602 ± 0.017
HT1080, 3.333 µM | 0.491 ± 0.025
HT1080, 10 µM | 0.462 ± 0.013
KHOS-NP, 0.00017 µM | 1.06 ± 0.019
KHOS-NP, 0.00051 µM | 1.03 ± 0.047
KHOS-NP, 0.00152 µM | 1.04 ± 0.038
KHOS-NP, 0.00457 µM | 1.04 ± 0.034
KHOS-NP, 0.01372 µM | 1.01 ± 0.058
KHOS-NP, 0.04115 µM | 0.965 ± 0.03
KHOS-NP, 0.1235 µM | 0.823 ± 0.052
KHOS-NP, 0.3704 µM | 0.727 ± 0.042
KHOS-NP, 1.111 µM | 0.526 ± 0.021
KHOS-NP, 3.333 µM | 0.351 ± 0.018
KHOS-NP, 10 µM | 0.277 ± 0.0072
MES-SA, 0.00017 µM | 0.871 ± 0.016
MES-SA, 0.00051 µM | 0.89 ± 0.02
MES-SA, 0.00152 µM | 0.855 ± 0.04
MES-SA, 0.00457 µM | 0.862 ± 0.037
MES-SA, 0.01372 µM | 0.847 ± 0.024
MES-SA, 0.04115 µM | 0.844 ± 0.036
MES-SA, 0.1235 µM | 0.754 ± 0.021
MES-SA, 0.3704 µM | 0.779 ± 0.036
MES-SA, 1.111 µM | 0.76 ± 0.041
MES-SA, 3.333 µM | 0.741 ± 0.047
MES-SA, 10 µM | 0.694 ± 0.046
SK-LMS-1, 0.00017 µM | 0.942 ± 0.062
SK-LMS-1, 0.00051 µM | 0.955 ± 0.056
SK-LMS-1, 0.00152 µM | 0.953 ± 0.054
SK-LMS-1, 0.00457 µM | 0.945 ± 0.037
SK-LMS-1, 0.01372 µM | 0.875 ± 0.028
SK-LMS-1, 0.04115 µM | 0.708 ± 0.032
SK-LMS-1, 0.1235 µM | 0.6 ± 0.013
SK-LMS-1, 0.3704 µM | 0.601 ± 0.045
SK-LMS-1, 1.111 µM | 0.5484 ± 0.0052
SK-LMS-1, 3.333 µM | 0.491 ± 0.016
SK-LMS-1, 10 µM | 0.37 ± 0.0084
SW684, 0.00017 µM | 1.04 ± 0.037
SW684, 0.00051 µM | 1.09 ± 0.043
SW684, 0.00152 µM | 1.06 ± 0.047
SW684, 0.00457 µM | 1.03 ± 0.043
SW684, 0.01372 µM | 1.03 ± 0.04
SW684, 0.04115 µM | 0.973 ± 0.067
SW684, 0.1235 µM | 0.969 ± 0.07
SW684, 0.3704 µM | 0.98 ± 0.047
SW684, 1.111 µM | 0.941 ± 0.029
SW684, 3.333 µM | 0.84 ± 0.024
SW684, 10 µM | 0.692 ± 0.048
SW872, 0.00017 µM | 0.957 ± 0.066
SW872, 0.00051 µM | 0.985 ± 0.053
SW872, 0.00152 µM | 0.951 ± 0.048
SW872, 0.00457 µM | 0.938 ± 0.051
SW872, 0.01372 µM | 0.894 ± 0.02
SW872, 0.04115 µM | 0.758 ± 0.01
SW872, 0.1235 µM | 0.654 ± 0.03
SW872, 0.3704 µM | 0.58 ± 0.046
SW872, 1.111 µM | 0.58 ± 0.01
SW872, 3.333 µM | 0.562 ± 0.028
SW872, 10 µM | 0.545 ± 0.019
SW1353, 0.00017 µM | 0.917 ± 0.016
SW1353, 0.00051 µM | 0.894 ± 0.019
SW1353, 0.00152 µM | 0.918 ± 0.024
SW1353, 0.00457 µM | 0.892 ± 0.02
SW1353, 0.01372 µM | 0.815 ± 0.058
SW1353, 0.04115 µM | 0.782 ± 0.012
SW1353, 0.1235 µM | 0.75 ± 0.019
SW1353, 0.3704 µM | 0.709 ± 0.036
SW1353, 1.111 µM | 0.724 ± 0.043
SW1353, 3.333 µM | 0.674 ± 0.029
SW1353, 10 µM | 0.652 ± 0.008
SYO-1, 0.00017 µM | 0.937 ± 0.012
SYO-1, 0.00051 µM | 0.931 ± 0.011
SYO-1, 0.00152 µM | 0.9523 ± 0.009
SYO-1, 0.00457 µM | 0.9263 ± 0.0047
SYO-1, 0.01372 µM | 0.8956 ± 0.0039
SYO-1, 0.04115 µM | 0.869 ± 0.015
SYO-1, 0.1235 µM | 0.829 ± 0.019
SYO-1, 0.3704 µM | 0.805 ± 0.018
SYO-1, 1.111 µM | 0.778 ± 0.015
SYO-1, 3.333 µM | 0.733 ± 0.032
SYO-1, 10 µM | 0.695 ± 0.042
VA-ES-BJ, 0.00017 µM | 0.9961 ± 0.0092
VA-ES-BJ, 0.00051 µM | 0.992 ± 0.022
VA-ES-BJ, 0.00152 µM | 0.985 ± 0.0088
VA-ES-BJ, 0.00457 µM | 0.964 ± 0.039
VA-ES-BJ, 0.01372 µM | 0.947 ± 0.041
VA-ES-BJ, 0.04115 µM | 0.877 ± 0.03
VA-ES-BJ, 0.1235 µM | 0.8465 ± 0.0025
VA-ES-BJ, 0.3704 µM | 0.836 ± 0.051
VA-ES-BJ, 1.111 µM | 0.808 ± 0.039
VA-ES-BJ, 3.333 µM | 0.78 ± 0.036
VA-ES-BJ, 10 µM | 0.742 ± 0.023
